Earlier results, collected in patent US20080146534A1, “PHARMACEUTICAL COMPOSITION FOR REDUCING THE RISKS ASSOCIATED WITH CARDIOVASCULAR AND CEREBROVASCULAR DISEASES” (priority 2006, published 2008).

Conditions: at clinical doses

SMILES: O=C1CCc2cc(OCCCCc3nnnn3C3CCCCC3)ccc2N1 [Cilostazol, 6-[4-(1-cyclohexyl-1H-tetrazol-5-yl)butoxy]-3,4-dihydro-2(1H)-quinolinon]
- increase in heart rate: about 7 beats/minute
- ventricular premature beat (VPB) rate (small increase from 1/hour): 4 h⁻¹
